Measurements as given in US6489313B1, “Memory by the administration of Δ5-androstene-3β-ol-7,17-dione and 3β esters” (Humanetics Corporation, priority 1998, dated 2002).

Columns and labels:
[1] = test system: Aged, two year old mice; test: Morris water maze procedure, aged mice; type: in vivo; conditions: two weeks after treatment, DHEA 20 mg/kg or equimolar amount, control 36 seconds
Protocol: Aged, two year old mice were tested in the Morris water maze procedure by training the mice to locate the pedestal in less than 15 seconds in three consecutive trials. Immediately upon completion of training one group of mice was treated with DHEA (20 mg/kg) and a second group treated with an eqimolar amount of Δ5-Androstene-3β-acetyl-7,17-dione. Two weeks after treatment the time to rescue was timed in the Morris water maze procedure at: Control 36 seconds, DHEA 27 seconds, and Δ5-Androstene-3β-acetyl-7,17-dione 13 seconds.

[2] = test system: C57BL76 mice; test: Morris water maze procedure, scopolamine-induced amnesia; type: in vivo
Protocol: Groups of 13 to 16 C57BL76 mice (35 gm) were tested in the Morris. water maze procedure by training the mice to locate the pedestal in less than 15 seconds in three consecutive trials. Immediately upon completion of training the mice in each of three groups were treated with scopolamine (1 mg/kg), scopolamine+DHEA, or scopolamine+Δ5-Androstene-3β-acetyl-7,17-dione.

[3] = C57BL76 mice (35 gm), scopolamine 1 mg/kg alone or with the steroid, six days after treatment, control 12.2±1.8

Compound	time to rescue in the Morris water maze procedure [1] [s]	average time to rescue in the Morris water maze procedure [2, 3] [s]	average time to rescue in the Morris water maze procedure ([2]; mouse, in vivo) [s]
CC(=O)O[C@H]1CC[C@@]2(C)C(=CC(=O)[C@@H]3[C@@H]2CC[C@]2(C)C(=O)CC[C@@H]32)C1 [Δ5-Androstene-3β-acetyl-7,17-dione]	13	8.3 ± 1.8	
C[C@]12CC[C@H](O)CC1=CC[C@@H]1[C@@H]2CC[C@]2(C)C(=O)CC[C@@H]12 [DHEA, dehydroepiandrosterone]	27		9.7 ± 1.6
CN1[C@@H]2C[C@@H](OC(=O)[C@H](CO)c3ccccc3)C[C@H]1[C@@H]1O[C@@H]12 [scopolamine]		20.0 ± 3.6	
